Data reported in patent publication US20250108213A1, “COMPOSITIONS AND METHODS FOR ENHANCING THE EFFECT OF PLATINUM-BASED SYSTEMIC THERAPY” (NOVOCURE GMBH, priority 2023, published 2025).
Entries after “also recorded” stand apart in the source; their conditions may differ. Where two headings read alike, the source gives them in different places.

Experiments:
[1] = system: γH2AX foci in cell nuclei; assay: DNA damage examination by fluorescence microscopy; format: cell-based, human
Protocol: For DNA damage and cell cycle examination, the following drug concentrations were selected: For A2780—6 μM carboplatin, 1 μM olaparib, and 0.5 μM niraparib; For OVCAR-3-16 μM carboplatin, 0.5 μM olaparib, and 0.8 μM niraparib; For A2780cis—36 μM carboplatin, 10 μM olaparib, and 1.5 μM niraparib. Treated cells were fixed with 4% paraformaldehyde for 10 min, permeabilized for 20 min with 0.5% Triton X-100 in PBS, and blocked with donkey serum (PBS with 0.3% Triton X-100 and donkey serum 1:100). Cells were incubated at 4° C. overnight with anti-γH2AX antibody (Cell Signaling, Danvers, MA, USA; #9718, 1:400), followed by incubation at room temperature for 1 hr with Alexa Flour 488-conjugated secondary antibody (Jackson Immunoresearch, Cambridge, UK; #711-545-152, 1:500) and […] 4′,6-diamidino-2-phenylindole (DAPI; Sigma Aldrich, Rehovot, Israel). LSM 700 laser scanning confocal system (Zeiss, Gottingen, Germany) was utilized to obtain images, and the mean number of foci per nucleus was determined using the FIJI software with the BioVoxxel plugin.

A2780 cells [2] = assay: Apoptosis, Annexin V/7-AAD staining, flow cytometer; format: cell-based, human; conditions: TTFields applied with drug
Protocol: (§1) Apoptosis: Treated cells were double-stained with FITC-conjugated annexin V (AnnV) and 7-aminoactinomycin D (7AAD), and data acquisition was performed with a flow cytometer.
(§2) Apoptosis was also examined. Treated cells were double-stained with FITC-conjugated annexin V (AnnV) and 7-aminoactinomycin D (7AAD), and data acquisition was performed with a flow cytometer.
(§3) Treated cells were stained with FITC-conjugated Annexin V (AnnV) and 7-Aminoactinomycin D (7-AAD) using a commercial kit (BioLegend, San Diego, CA, USA), according to the manufacturer's instruction. Data acquisition and analysis were done on the Cytek Northern Lights flow cytometer

A2780cis cells [3] = assay: Cell count and overall effect (cell count x colony formation) after 72 h drug with or without TTFields; format: cell-based, human; conditions: for effect of TTFields on the drug-induced overall effect (cell count x colony formation) / effect of TTFields on the drug-induced effect, cell count: TTFields plus drug vs drug alone; for effect of TTFields on the drug-induced effect, cell count: p<0.0001; for sensitivity to drug (cell count dose response) / effect of TTFields on sensitivity to / effect of the drug / type of TTFields-drug interaction (measured vs calculated additive curve): 72 h; for sensitivity to drug (cell count dose response): compared among A2780, OVCAR-3, A2780cis; for effect of TTFields on sensitivity to / effect of the drug: platinum-resistant cell line; for effect of TTFields on sensitivity to / effect of the drug / type of TTFields-drug interaction (measured vs calculated additive curve): TTFields 200 kHz, 1 V/cm RMS; for type of TTFields-drug interaction (measured vs calculated additive curve): platinum-resistant cells
Protocol: (§4) TTFields were applied to the cells for 72 h in the absence or presence of various concentrations of carboplatin. Synergy was defined when the observed value was lower than that predicted for an additive effect (presented by the red dotted line-calculated by multiplying the observed effects for TTFields alone with that for cisplatin alone).
The Cytotoxic effect was also determined. Treated cells were counted using a flow cytometer, and cytotoxic effect was calculated relative to control cells.
Treated cells were harvested, re-plated, and grown for an additional 7-14 days. Colonies were stained (0.5% crystal violet solution), counted, and clonogenic effect was calculated relative to control. The overall effect was calculated by multiplying the cytotoxic and clonogenic effects.
TTFields application was studied. Ovarian carcinoma cells A2780cis (cisplatin resistant cells) were treated for 72 h with TTFields at an intensity of 1 V/cm RMS and a frequency of 200 kHz using the inovitro system (See FIG. 11).
as §4, with “PARPi Olaparib and Niraparib.” for “carboplatin.”
The cytotoxic effect was studied. Treated cells were counted using a flow cytometer, and cytotoxic effect was calculated relative to control cells.
Treated cells were harvested, re-plated, and grown for an additional 7-14 days. Colonies were stained (0.5% crystal violet solution), counted, and clonogenic effect was calculated relative to control. Overall effect was calculated by multiplying the cytotoxic and clonogenic effects.
(§5) Cells were seeded on coverslip (22 mm diameter; 20×10^3 cells/coverslip for A2780 and A2780cis; 40×10^3 cells/coverslip for OVCAR-3). After overnight incubation, the coverslips were transferred into in vitro dishes containing 2 ml of media. TTFields at a frequency of 200 kHz (and intensity of 1 V/cm RMS) were applied to the cells for 72 hr using the INOVITRO system (Novocure, Haifa, Israel).
(§6) For efficacy outcomes (cell count, overall effect, and apoptosis), various concentrations of carboplatin (MCE MedChemExpress, HY-17393), olaparib (Cayman Chemical, 10621), or niraparib (Cayman Chemical, 20842) were applied, with or without TTFields.
(§7) Cell count was examined following treatment using Cytek Northern Lights flow cytometer (Cytek Biosciences, USA).
(§8) Treated cells were harvested, re-plated in 6-well plates (500 cells/well for A2780 and A2780cis; 1000 for cells/well OVCAR-3), and grown for 7 (A2780 and A2780cis) or 21 (OVCAR-3) days. Colonies were stained with 0.5% crystal violet, quantified with ImageJ, and expressed as percentages relative to control. Overall effect was calculated by multiplying colony formation with the corresponding cell count.
(§9) The surviving fraction predicted for an additive effect between TTFields and drug was calculated per the various drug concentrations by multiplying the actual measured surviving fractions for the individual treatments one by the other (SFcalculated additive=SFTTFields×SFdrug; SF are expressed as probability). Based on the calculated values, a trendline was determined. Additivity, synergy, or antagonism was defined when the calculated additive trendline overlapped, was above, or was below the actual measured line for TTFields+drug, respectively.
(§10) For quantifying the magnitude of TTFields-drug interaction, interaction index (Ii) values were calculated by the Bliss independence method using mortality values (Mx=1−SFx). Per the various drug concentrations, mortality predicted for an additive effect between TTFields and drug (Mcalculated additive=MTTFields+Mdrug−MTTFields×Mdrug) was divided by the actual measured mortality for TTFields+drug.

OVCAR-3 cells [4] = assay: Apoptosis, Annexin V/7-AAD staining, flow cytometer; format: cell-based, human; conditions: TTFields applied with drug
Protocol: as §1, §3

G2/M cell cycle arrest = assay: Cell cycle analysis (7-AAD, flow cytometer); format: cell-based, human
Protocol: For DNA damage and cell cycle examination, the following drug concentrations were selected: For A2780—6 μM carboplatin, 1 μM olaparib, and 0.5 μM niraparib; For OVCAR-3-16 μM carboplatin, 0.5 μM olaparib, and 0.8 μM niraparib; For A2780cis—36 μM carboplatin, 10 μM olaparib, and 1.5 μM niraparib. Treated cells were fixed with 70% ice-cold ethanol for 30 min, pelleted, washed, and stained for 30 min at 37° C. in phosphate buffered saline (PBS) containing 1% FBS 5 μg/ml 7-AAD (BioLegend), 200 μg/ml RNase, 1 mM EDTA and 0.1% Triton X-100. Data acquisition (at 665/30 nm) and analysis were done on the Cytek Northern Lights flow cytometer and the FlowJo 10.8.1 software (BD Biosciences), respectively.

A2780cis cells [5] = assay: Apoptosis, Annexin V/7-AAD staining, flow cytometer; format: cell-based, human; conditions: TTFields applied with drug
Protocol: as §2
Treated cells were double-stained with FITC-conjugated annexin V (AnnV) and 7-aminoactinomycin D (7AAD), and data acquisition was performed with a flow cytometer.
as §3

A2780 cells [6] = conditions: for type of TTFields-drug interaction (measured vs calculated additive curve): HRP cells; for effect of TTFields on the drug-induced overall effect (cell count x colony formation) / effect of TTFields on the drug-induced effect, cell count: TTFields plus drug vs drug alone; for effect of TTFields on the drug-induced effect, cell count: p<0.0001
Protocol: as §5, §6, §7, §8, §9
as §10, with “TTFields+drug. Additivity was determined when the 95% confidence interval (CI) overlapped 1, synergy when 95% CI<1, and antagonism when 95% CI>1. Lower Ii values were considered indicative of higher synergy levels.” for “TTFields+drug.”

OVCAR-3 cells [7] = conditions: for effect of TTFields on the drug-induced overall effect (cell count x colony formation) / effect of TTFields on the drug-induced effect, cell count: TTFields plus drug vs drug alone; for effect of TTFields on the drug-induced effect, cell count: p<0.0001; for sensitivity to drug (cell count dose response): drug alone, compared among A2780, OVCAR-3, A2780cis
Protocol: as §5, §6, §7, §8, §9
as §10, with “TTFields+drug. Additivity was determined when the 95% confidence interval (CI) overlapped 1, synergy when 95% CI<1, and antagonism when 95% CI>1. Lower Ii values were considered indicative of higher synergy levels.” for “TTFields+drug.”

[8] = treatment alone, all cell lines (A2780, OVCAR-3, A2780cis), relative to control
[9] = Bliss independence, TTFields plus drug
[10] = TTFields 200 kHz, 1 V/cm RMS, 72 h

## N.N.O=C([O-])C1(C(=O)[O-])CCC1.[Pt+2] [carboplatin]
[1]; drug alone, OVCAR-3 cells
  levels of γH2AX foci, monotherapy: especially dramatic
[1]; [8]
  levels of γH2AX foci, monotherapy: more pronounced effect
A2780 cells [2]
  effect of TTFields on the apoptotic effect / apoptotic cell fraction: enhanced; also recorded: increases
A2780cis cells [3]; A2780cis relative to A2780 cells, by Ii
  level of TTFields-drug synergy: higher levels
A2780cis cells [3]; [9]
  interaction index (Ii), 95% confidence interval: smaller than 1
A2780cis cells [3]
  effect of TTFields on the drug-induced overall effect (cell count x colony formation): significantly elevated
  effect of TTFields on the drug-induced effect, cell count: significantly amplified
  effect of TTFields on sensitivity to / effect of the drug: increased the sensitivity
  type of TTFields-drug interaction (measured vs calculated additive curve): synergistic; also recorded: synergistically; also recorded: tendency to synergy
A2780cis cells [3]; drug alone
  sensitivity to drug (cell count dose response): lower response; also recorded: highest resistance
A2780cis cells [3]; drug alone, titration
  decreased sensitivity of A2780cis cells compared with wild type A2780 cells: 5 fold
OVCAR-3 cells [4]
  effect of TTFields on the apoptotic effect / apoptotic cell fraction: enhanced; also recorded: increases
G2/M cell cycle arrest
  cell cycle arrest, drug alone: induced G2/M arrest
A2780cis cells [5]
  effect of TTFields on the apoptotic effect / apoptotic cell fraction: increases
A2780 cells [6]; [9]
  interaction index (Ii), 95% confidence interval: smaller than 1
A2780 cells [6]; [10]
  type of TTFields-drug interaction (measured vs calculated additive curve): tendency to synergism; also recorded: additive; also recorded: tendency to synergy
  type of TTFields-drug interaction, overall effect (cell count and clonogenic effect): Signs of synergy
A2780 cells [6]; TTFields 200 kHz, 1 V/cm RMS, 72 h, BRCA wt
  type of TTFields-drug interaction, cytotoxic effect (cell count): Signs of synergy
A2780 cells [6]
  effect of TTFields on the drug-induced overall effect (cell count x colony formation): significantly elevated
  effect of TTFields on the drug-induced effect, cell count: significantly amplified
OVCAR-3 cells [7]; [9]
  interaction index (Ii), 95% confidence interval: > 1
OVCAR-3 cells [7]
  effect of TTFields on the drug-induced overall effect (cell count x colony formation): significantly elevated
  effect of TTFields on the drug-induced effect, cell count: significantly amplified
OVCAR-3 cells [7]; 72 h
  sensitivity to drug (cell count dose response): highest sensitivity

## NC(=O)c1cccc2cn(-c3ccc([C@@H]4CCCNC4)cc3)nc12 [niraparib]
[1]; [8]
  levels of γH2AX foci, monotherapy: mild elevation
A2780 cells [2]
  effect of TTFields on the apoptotic effect / apoptotic cell fraction: enhanced; also recorded: elevation
A2780cis cells [3]
  effect of TTFields on the drug-induced overall effect (cell count x colony formation): significantly augmented
  effect of TTFields on the drug-induced effect, cell count: significantly augmented
  effect of TTFields on sensitivity to / effect of the drug: increased the sensitivity
  type of TTFields-drug interaction (measured vs calculated additive curve): tendency to synergy
A2780cis cells [3]; drug alone
  sensitivity to drug (cell count dose response): highest resistance
OVCAR-3 cells [4]
  effect of TTFields on the apoptotic effect / apoptotic cell fraction: enhanced; also recorded: elevation
G2/M cell cycle arrest
  cell cycle arrest, drug alone: induced G2/M arrest
A2780cis cells [5]
  effect of TTFields on the apoptotic effect / apoptotic cell fraction: elevation
A2780 cells [6]
  type of TTFields-drug interaction, cytotoxic effect (cell count): synergistically
  effect of TTFields on the drug-induced overall effect (cell count x colony formation): significantly augmented
  effect of TTFields on the drug-induced effect, cell count: significantly augmented
A2780 cells [6]; A2780 relative to A2780cis cells, by Ii
  level of TTFields-drug synergy: higher
A2780 cells [6]; [10]
  type of TTFields-drug interaction (measured vs calculated additive curve): high synergy
  type of TTFields-drug interaction, overall effect (cell count and clonogenic effect): synergistically
OVCAR-3 cells [7]
  type of TTFields-drug interaction, cytotoxic effect (cell count): additively
  effect of TTFields on the drug-induced overall effect (cell count x colony formation): significantly augmented
  effect of TTFields on the drug-induced effect, cell count: significantly augmented
OVCAR-3 cells [7]; HRD cells, TTFields 200 kHz, 1 V/cm RMS, 72 h
  type of TTFields-drug interaction (measured vs calculated additive curve): additively
OVCAR-3 cells [7]; [10]
  type of TTFields-drug interaction, overall effect (cell count and clonogenic effect): additive
OVCAR-3 cells [7]; 72 h
  sensitivity to drug (cell count dose response): highest sensitivity
